{"source": "patent US20250090528A1", "about": "“USE OF COMPLEMENT FACTOR D INHIBITOR FOR TREATMENT OF LUPUS NEPHRITIS AND IMMUNOGLOBULIN A NEPHROPATHY” (Alexion Pharmaceuticals, Inc., priority 2021, published 2025)", "key": {"lupus nephritis": {"system": "lupus nephritis", "settings": "LN patients, cited from earlier work"}, "[1]": {"assay": "Single-ascending and multiple-ascending dose clinical PK studies in healthy volunteers", "assay_type": "in vivo, human", "text": "Clinical pharmacokinetics (PK) and PD data have been generated for ALXN2050 in single-ascending and multiple-ascending dose studies in healthy volunteers."}, "[2]": {"system": "alternative pathway (AP) activity", "assay": "PD activity: AP inhibition in the AP Wieslab assay after multiple-dose administration in healthy participants", "assay_type": "in vivo, human", "description": "The 120 mg BID dosing regimen provided sustained AP inhibition (AP activity <10%) in healthy participants whose ALXN2050 concentrations achieved the 90% inhibitory concentration (IC90) threshold through the 12-hour dosing periods. Therefore, 120 mg BID is selected as the minimum therapeutic dose. […] Therefore, the 180 mg BID is selected as the likely therapeutic dose.\n(§1) In addition, both dosage regimens provided complete (>90%) and sustained inhibition of AP activity throughout the 12-hour dosing interval. Therefore, 120 mg BID is selected as the minimum therapeutic dosage."}, "[3]": {"assay": "Multiple ascending dose study: safety and safety margin versus NOAEL exposures from nonclinical chronic toxicology studies", "assay_type": "in vivo, human", "settings": "120 and 200 mg BID", "description": "as §1"}, "[4]": {"settings": "NOAEL from nonclinical chronic toxicology studies"}}, "note": "Like-named read-outs stand apart in the source and are kept apart here."}
{"compound": "C=C/C=C/C[C@@H](C)[C@@H](O)[C@H]1C(=O)N[C@@H](CC)C(=O)N(C)CC(=O)N(C)[C@@H](CC(C)C)C(=O)N[C@@H](C(C)C)C(=O)N(C)[C@@H](CC(C)C)C(=O)N[C@@H](C)C(=O)N[C@H](C)C(=O)N(C)[C@@H](CC(C)C)C(=O)N(C)[C@@H](CC(C)C)C(=O)N(C)[C@@H](C(C)C)C(=O)N1C", "note": "[voclosporin]", "values": [{"measurement": "CRR", "setting": "lupus nephritis; at one year, placebo 22.5%", "result": 40.8, "unit": "%"}]}
{"compound": "belimumab: approved in the US for the treatment of LN", "values": [{"measurement": "CRR", "setting": "lupus nephritis; at two years, placebo 20.0%", "result": 30.0, "unit": "%"}]}
{"compound": "CC(=O)c1nn(CC(=O)N2[C@H](C(=O)Nc3nc(Br)ccc3C)C[C@@]3(C)C[C@@H]23)c2ccc(-c3cnc(C)nc3)cc12", "note": "[ALXN2050]", "values": [{"measurement": "intersubject variability in PK", "setting": "[1]", "result": "Large intersubject variability"}, {"measurement": "increase in systemic exposure with dose", "setting": "[1]; multiple-dose administration at steady state (Days 7 and 14), 40 mg BID to 200 mg BID", "result": "greater than dose-proportional increase"}, {"measurement": "increase in systemic exposure with dose", "setting": "[1]; single-dose administration", "result": "dose-proportional increase"}, {"measurement": "inhibition of AP activity (complete and sustained)", "setting": "[2]; 120 and 200 mg BID, throughout the 12-hour dosing interval", "result": "> 90", "unit": "%"}, {"measurement": "activity at 120 mg", "setting": "[2]; Homo sapiens, 120 mg BID, participants whose concentrations achieved the IC90 threshold through the 12-hour dosing periods, read-out: AP activity (sustained AP inhibition)", "result": "< 10", "unit": "%"}, {"measurement": "PD activity (AP inhibition in the AP Wieslab assay)", "setting": "[2]; multiple-dose 40 mg BID to 200 mg BID, healthy participants", "result": "increased with increasing dose"}, {"measurement": "safety and efficacy of dose regimens", "setting": "[3]; multiple ascending dose study", "result": "safe and effective"}, {"measurement": "safety margin in AUC0-24 versus exposures at NOAEL", "setting": "[3]; [4]", "result": "≥ 10", "unit": "fold"}, {"measurement": "safety margin in maximum plasma concentration (Cmax) versus exposures at NOAEL", "setting": "[3]; [4]", "result": "≥ 10", "unit": "fold"}]}
